Measurements published in the NIST ThermoML archive (doi:10.1016/j.jct.2005.07.009).
Numbers after ± are expanded uncertainties.

What was measured:
[1] = xn = mol fraction of the nth substance listed; settings: 298.15 K, 101 kPa, Liquid, Vibrating tube method
[2] = excess molar enthalpy (molar enthalpy of mixing); xn = mol fraction of the nth substance listed; settings: 298.15 K, 101 kPa, Liquid

With `BrCCCCCCBr` [1,6-dibromohexane] + CCOC(C)=O the mass density ([1]; x2 = 0.1101) was 1558.02 ± 2.6 kg/m3, the mass density ([1]; x2 = 0.2056) was 1515.22 ± 2.7 kg/m3 and the mass density ([1]; x2 = 0.2841) was 1476.78 ± 2.8 kg/m3. For the same compound, the mass density ([1]; x2 = 0.3679) was 1432.01 ± 2.8 kg/m3, the mass density ([1]; x2 = 0.4348) was 1393.28 ± 2.8 kg/m3 and the mass density ([1]; x2 = 0.5035) was 1350.27 ± 2.9 kg/m3. It also gave a mass density ([1]; x2 = 0.623) of 1266.72 ± 2.8 kg/m3, a mass density ([1]; x2 = 0.733) of 1177.88 ± 2.8 kg/m3 and a mass density ([1]; x2 = 0.8165) of 1101.03 ± 2.7 kg/m3. It also gave a mass density ([1]; x2 = 0.8582) of 1059.17 ± 2.6 kg/m3, a mass density ([1]; x2 = 0.8988) of 1015.65 ± 2.6 kg/m3 and a mass density ([1]; x2 = 0.9703) of 932.2 ± 2.4 kg/m3. It also gave an excess molar enthalpy ([2]; x2 = 0.0852) of 0.0323 ± 0.00103 kcal/mol, an excess molar enthalpy ([2]; x2 = 0.179) of 0.0516 ± 0.00148 kcal/mol and an excess molar enthalpy ([2]; x2 = 0.2657) of 0.0644 ± 0.00179 kcal/mol. For the same compound, the excess molar enthalpy ([2]; x2 = 0.3506) was 0.0739 ± 0.00203 kcal/mol, the excess molar enthalpy ([2]; x2 = 0.4238) was 0.0791 ± 0.00215 kcal/mol and the excess molar enthalpy ([2]; x2 = 0.489) was 0.0806 ± 0.0022 kcal/mol. For the same compound, the excess molar enthalpy ([2]; x2 = 0.5186) was 0.0798 ± 0.00217 kcal/mol, the excess molar enthalpy ([2]; x2 = 0.5344) was 0.0792 ± 0.00215 kcal/mol and the excess molar enthalpy ([2]; x2 = 0.5598) was 0.078 ± 0.00213 kcal/mol. For the same compound, the excess molar enthalpy ([2]; x2 = 0.6031) was 0.0735 ± 0.00201 kcal/mol, the excess molar enthalpy ([2]; x2 = 0.6495) was 0.0677 ± 0.00186 kcal/mol and the excess molar enthalpy ([2]; x2 = 0.7011) was 0.0608 ± 0.00172 kcal/mol. The excess molar enthalpy ([2]; x2 = 0.7507) was 0.0522 ± 0.00151 kcal/mol, the excess molar enthalpy ([2]; x2 = 0.8025) was 0.0431 ± 0.00129 kcal/mol and the excess molar enthalpy ([2]; x2 = 0.8542) was 0.033 ± 0.00105 kcal/mol. For the same compound, the excess molar enthalpy ([2]; x2 = 0.9062) was 0.0221 ± 0.000789 kcal/mol and the excess molar enthalpy ([2]; x2 = 0.9578) was 0.0106 ± 0.00055 kcal/mol.
Compound `BrCCCCBr` [1,4-dibromobutane] + CCOC=O has a mass density ([1]; x2 = 0.0952) of 1765.32 ± 1.3 kg/m3, a mass density ([1]; x2 = 0.1744) of 1716.81 ± 1.5 kg/m3 and a mass density ([1]; x2 = 0.2604) of 1660.33 ± 1.8 kg/m3. It also gave a mass density ([1]; x2 = 0.3295) of 1611.72 ± 2 kg/m3, a mass density ([1]; x2 = 0.4012) of 1557.95 ± 2.1 kg/m3 and a mass density ([1]; x2 = 0.4668) of 1505.48 ± 2.3 kg/m3. It also gave a mass density ([1]; x2 = 0.5355) of 1446.96 ± 2.4 kg/m3, a mass density ([1]; x2 = 0.5888) of 1398.87 ± 2.5 kg/m3 and a mass density ([1]; x2 = 0.6436) of 1346.56 ± 2.5 kg/m3. For the same compound, the mass density ([1]; x2 = 0.6981) was 1291.4 ± 2.6 kg/m3, the mass density ([1]; x2 = 0.7934) was 1186.14 ± 2.6 kg/m3 and the mass density ([1]; x2 = 0.9238) was 1023.59 ± 2.5 kg/m3. For the same compound, the mass density ([1]; x2 = 0.9623) was 970.42 ± 2.5 kg/m3, the excess molar enthalpy ([2]; x2 = 0.0799) was 0.0549 ± 0.00155 kcal/mol and the excess molar enthalpy ([2]; x2 = 0.1652) was 0.0897 ± 0.00239 kcal/mol. It also gave an excess molar enthalpy ([2]; x2 = 0.2469) of 0.118 ± 0.00311 kcal/mol, an excess molar enthalpy ([2]; x2 = 0.3246) of 0.135 ± 0.00359 kcal/mol and an excess molar enthalpy ([2]; x2 = 0.397) of 0.145 ± 0.00382 kcal/mol. The excess molar enthalpy ([2]; x2 = 0.4607) was 0.149 ± 0.00382 kcal/mol, the excess molar enthalpy ([2]; x2 = 0.5109) was 0.147 ± 0.00382 kcal/mol and the excess molar enthalpy ([2]; x2 = 0.5179) was 0.148 ± 0.00382 kcal/mol. For the same compound, the excess molar enthalpy ([2]; x2 = 0.5525) was 0.145 ± 0.00382 kcal/mol, the excess molar enthalpy ([2]; x2 = 0.5649) was 0.143 ± 0.00359 kcal/mol and the excess molar enthalpy ([2]; x2 = 0.5973) was 0.14 ± 0.00359 kcal/mol. It also gave an excess molar enthalpy ([2]; x2 = 0.6082) of 0.137 ± 0.00359 kcal/mol, an excess molar enthalpy ([2]; x2 = 0.6459) of 0.131 ± 0.00335 kcal/mol and an excess molar enthalpy ([2]; x2 = 0.6929) of 0.121 ± 0.00311 kcal/mol. The excess molar enthalpy ([2]; x2 = 0.7514) was 0.103 ± 0.00263 kcal/mol, the excess molar enthalpy ([2]; x2 = 0.8051) was 0.0847 ± 0.00229 kcal/mol and the excess molar enthalpy ([2]; x2 = 0.8598) was 0.0615 ± 0.00172 kcal/mol. For the same compound, the excess molar enthalpy ([2]; x2 = 0.9121) was 0.0378 ± 0.00117 kcal/mol and the excess molar enthalpy ([2]; x2 = 0.9614) was 0.0142 ± 0.000621 kcal/mol.
Work on `BrCCCCCBr` [1,5-dibromopentane] + CCOC=O yielded a mass density ([1]; x2 = 0.089) of 1651.25 ± 2.7 kg/m3, a mass density ([1]; x2 = 0.1775) of 1605.2 ± 2.8 kg/m3 and a mass density ([1]; x2 = 0.2567) of 1560.84 ± 2.9 kg/m3. The mass density ([1]; x2 = 0.3412) was 1509.84 ± 2.9 kg/m3, the mass density ([1]; x2 = 0.4134) was 1463.17 ± 2.9 kg/m3 and the mass density ([1]; x2 = 0.5374) was 1374.43 ± 3 kg/m3. For the same compound, the mass density ([1]; x2 = 0.7024) was 1237.83 ± 2.9 kg/m3, the mass density ([1]; x2 = 0.7951) was 1149.61 ± 2.8 kg/m3 and the mass density ([1]; x2 = 0.8844) was 1054.85 ± 2.6 kg/m3. The mass density ([1]; x2 = 0.9227) was 1010.83 ± 2.6 kg/m3, the excess molar enthalpy ([2]; x2 = 0.0896) was 0.0659 ± 0.00184 kcal/mol and the excess molar enthalpy ([2]; x2 = 0.1866) was 0.108 ± 0.00287 kcal/mol. For the same compound, the excess molar enthalpy ([2]; x2 = 0.279) was 0.138 ± 0.00359 kcal/mol, the excess molar enthalpy ([2]; x2 = 0.3638) was 0.157 ± 0.00406 kcal/mol and the excess molar enthalpy ([2]; x2 = 0.4389) was 0.166 ± 0.0043 kcal/mol. The excess molar enthalpy ([2]; x2 = 0.5051) was 0.169 ± 0.0043 kcal/mol, the excess molar enthalpy ([2]; x2 = 0.5631) was 0.166 ± 0.0043 kcal/mol and the excess molar enthalpy ([2]; x2 = 0.6125) was 0.158 ± 0.00406 kcal/mol. It also gave an excess molar enthalpy ([2]; x2 = 0.6372) of 0.153 ± 0.00406 kcal/mol, an excess molar enthalpy ([2]; x2 = 0.6548) of 0.149 ± 0.00382 kcal/mol and an excess molar enthalpy ([2]; x2 = 0.6837) of 0.142 ± 0.00359 kcal/mol. The excess molar enthalpy ([2]; x2 = 0.6928) was 0.139 ± 0.00359 kcal/mol, the excess molar enthalpy ([2]; x2 = 0.7324) was 0.128 ± 0.00335 kcal/mol and the excess molar enthalpy ([2]; x2 = 0.7827) was 0.108 ± 0.00287 kcal/mol. For the same compound, the excess molar enthalpy ([2]; x2 = 0.831) was 0.088 ± 0.00237 kcal/mol, the excess molar enthalpy ([2]; x2 = 0.8797) was 0.065 ± 0.00182 kcal/mol and the excess molar enthalpy ([2]; x2 = 0.9254) was 0.0385 ± 0.00117 kcal/mol. For the same compound, the excess molar enthalpy ([2]; x2 = 0.966) was 0.0136 ± 0.000598 kcal/mol.
